Consider 4 molecules from patent publication US10842765B2, “Methods of reducing or preventing oxidation of small dense ldl or membrane polyunsaturated fatty acids” (Amarin Pharmaceuticals Ireland Limited, priority 2016, dated 2020).

Structures are written as SMILES.

For one data set, the system named is human LDL. The data set can be described thus: Copper-induced unfractionated LDL oxidation, TBARS, Example 7. Conditions: each agent 10.0 μM; 1 hour. In kind it is biochemical.
Data set [1] deals with small dense LDL (sdLDL) isolated from human subjects. In words: Glucose-induced sdLDL oxidation (MDA/TBARS), Example 10. Conditions: 10 μM; glucose 200 mg/dL; 1 hr. The data set is classed as biochemical. How it is done:
Vitamin E (α-tocopherol) purchased from Sigma-Aldrich was prepared in ethanol at 1.0 mM (ε=3.06×10^4 M^−1 cm^−1 at 294 nm) prior to experimental use. Test compounds were further diluted in ethanol or aqueous buffer as needed. Phosphate Buffered Saline (PBS) purchased from Sigma-Aldrich was prepared in double distilled water at 10 mM (138 mM NaCl, 2.7 mM KC, pH 7.4). Glucose prepared in PBS was added to test samples to achieve a final concentration of 11.0 mM (200 mg/dL).
LDL and sdLDL were isolated from the plasma of healthy volunteers by iodixanol density gradient ultracentrifugation and adjusted to a final apolipoprotein concentration of 10 mg/mL. […] Sample aliquots were incubated at 100° C. for 30 minutes and then assayed for the formation of thiobarbituric acid-reactive substances (TBARS), having a molar absorptivity (ε) value of 1.56×10^5 M^−1 cm^−1 at 532 nm and were derived principally from the reaction of thiobarbituric acid with malondialdehyde (MDA). Lipid oxidation was measured by the colorimetric detection of malondialdehyde (MDA), a marker of oxidative stress.
Data were presented as mean±SD for (n) separate samples or experiments. Differences between groups were analyzed using the unpaired, two-tailed Student's t-test (for comparisons between only two groups) or ANOVA followed by Student-Newman-Keuls multiple comparisons post hoc analysis (for comparisons between three or more groups). Only differences with probability values less than 0.05 were considered significant.

The next data set addresses T1, HMG-CoA reductase (Homo sapiens, UniProt P04035).
T1 sequence (P04035 1-888): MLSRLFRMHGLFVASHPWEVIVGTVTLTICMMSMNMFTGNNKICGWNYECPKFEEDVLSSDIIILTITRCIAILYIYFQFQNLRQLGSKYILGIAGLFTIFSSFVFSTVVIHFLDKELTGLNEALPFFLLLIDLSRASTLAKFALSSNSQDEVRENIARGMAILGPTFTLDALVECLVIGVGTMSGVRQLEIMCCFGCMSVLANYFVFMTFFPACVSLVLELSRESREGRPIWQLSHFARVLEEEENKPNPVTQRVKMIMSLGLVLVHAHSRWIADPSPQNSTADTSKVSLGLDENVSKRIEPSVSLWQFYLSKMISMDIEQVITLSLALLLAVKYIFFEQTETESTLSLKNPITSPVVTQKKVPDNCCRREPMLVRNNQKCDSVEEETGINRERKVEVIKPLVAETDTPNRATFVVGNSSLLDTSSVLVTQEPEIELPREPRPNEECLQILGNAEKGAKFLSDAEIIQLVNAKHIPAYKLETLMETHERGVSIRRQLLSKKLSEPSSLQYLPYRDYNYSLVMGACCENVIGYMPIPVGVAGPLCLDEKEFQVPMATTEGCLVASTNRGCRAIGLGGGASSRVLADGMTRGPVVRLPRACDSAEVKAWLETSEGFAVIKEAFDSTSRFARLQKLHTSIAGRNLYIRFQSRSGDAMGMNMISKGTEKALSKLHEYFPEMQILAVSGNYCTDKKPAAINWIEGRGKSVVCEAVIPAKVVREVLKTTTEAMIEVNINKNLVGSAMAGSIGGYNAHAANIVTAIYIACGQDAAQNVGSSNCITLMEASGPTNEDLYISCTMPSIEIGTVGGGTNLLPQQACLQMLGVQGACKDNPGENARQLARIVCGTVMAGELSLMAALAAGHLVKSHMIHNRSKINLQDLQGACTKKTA
Conditions: primary pharmacokinetic studies; hepatic cytochrome P450 metabolism; cited from earlier work.

The test system of data set [2] is human sdLDL. The data set can be described thus: Copper-induced sdLDL oxidation, TBARS, Example 7. The data set is classed as biochemical. Conditions: each agent 10 μM; 1 hr.
Protocol: Samples were prepared at 100 μg/mL sdLDL and incubated with EPA or DHA (10.0 μM each) for 30 minutes prior to initiating lipid oxidation using 10 μM CuSO4. Samples were maintained at 37° C. in a shaking water bath for 1 hour. Lipid oxidation was measured by colorimetric assay of TBARS formation and expressed as molar equivalents of MDA.
An experiment to study the antioxidant effect of EPA in LDL and small dense LDL (“sdLDL”) was performed. LDL and sdLDL were isolated from the plasma of healthy volunteers by iodixanol density gradient ultracentrifugation, and adjusted to a final apolipoprotein concentration of 2 mg/mL. […] Lipid oxidation was initiated with 10 μM CuSO4 and monitored by the colorimetric detection of thiobarbituric acid reactive substances (TBARS) for 1 hr. Vitamin E was also incubated with sample aliquots as a positive control.
Data set [3] in a line: Glucose-induced membrane lipid peroxidation (LOOH) in lipid vesicles, Example 4. The data set is classed as biochemical. Conditions: 72- and 96-hour time points; 1:30 drug-to-phospholipid mole ratio; glucose. The protocol: An experiment was conducted to test the ability of EPA to interfere with the effects of high glucose on membrane lipid peroxidation and organization in vesicles enriched with PUFAs. […] Vitamin E (α-tocopherol) was also purchased from Sigma-Aldrich and prepared in ethanol at 1.0 mM (ε=3.06×10^4 M^−1 cm^−1 at 294 nm) just prior to experimental use. […] All test compounds were further diluted in ethanol or aqueous buffer as needed. Glucose was prepared in saline buffer (0.5 mM HEPES, 154 mM NaCl, pH 7.3) at 11.0 mM (200 mg/dL). CHOD-iodide color reagent (stock) was prepared, with slight modification, as described by from El-Saadani et al. (J. […] Samples were shell-dried under nitrogen gas and placed under vacuum for 1 h to remove residual solvent. […] Lipid suspensions were then vortexed for 3 min at ambient temperature to form MLVs. All MLV samples were subjected to time-dependent autoxidation by incubating at 37° C. in an uncovered, shaking water bath. This method allows lipid peroxidation to occur gradually without requiring the use of exogenous initiators. Small aliquots (5-100 μL) of each sample were removed, immediately following MLV preparation (0 hour) and after exposing samples to oxidative conditions for 72 or 96 hour, and combined with 1.0 mL of activated CHOD-iodide color reagent. Aliquot volume was reduced with each successive time point to ensure that spectrophotometric readings were within the optimal adsorption range. Test samples were covered and incubated in darkness at room temperature for at least 4 hr. Sample absorbances were then measured against a CHOD blank at 365 nm using a Beckman DU-640 spectrophotometer. The CHOD colorimetric assay is based on the oxidation of iodide (I^−) by lipid hydroperoxide (LOOH) to form triiodide (I3^−), the quantity of which is directly proportional to the amount of LOOH present in the lipid sample. The molar absorptivity (I3^−) of I3^− is 2.46×10^4 M^−1 cm^−1 at 365 nm. […]

The subject of another data set is unfractionated LDL. In words: Copper-induced unfractionated LDL oxidation, TBARS, Example 6. In kind it is biochemical, human. Conditions: 1.0 μM to 10.0 μM; data not shown. How it is done:
All test compounds were further diluted in ethanol or aqueous buffer as needed. Venous blood was collected from healthy volunteers into vacutainer tubes containing sodium EDTA. […] Plasma and lipoprotein fractions were maintained at 4° C. and protected from excessive exposure to light. Prior to oxidation experiments, EDTA was removed from the lipoprotein fraction using PD-10 desalting columns (GE Healthcare, Piscataway N.J.). After equilibration of the column with phosphate buffered saline (PBS), 2.5 mL of the lipoprotein fraction was loaded on the column and the flow-through discarded. The lipoprotein was then eluted with 3 mL of PBS. The LDL fractions were further diluted with PBS to obtain a 100 μg/mL apoB100 concentration. […] Differences between groups were analyzed using the two-tailed, Student's t-test (for comparisons between only two groups) or ANOVA followed by Dunnett or Student-Newman-Keuls multiple comparisons post-hoc analysis (for comparisons between three or more groups).

The test system of data set [4] is human sdLDL. The data set can be described thus: Copper-induced sdLDL oxidation, TBARS after 2 hr, Example 6. Conditions: 1.0 μM to 10.0 μM. The data set is classed as biochemical. How it is done:
An experiment to study the antioxidant effect of EPA in small dense […] performed. […] Vitamin E (α-tocopherol) was purchased from Sigma-Aldrich and prepared in ethanol at 1.0 mM (ε=3.06×10^4 M^-1 cm^-1 at 294 nm) just prior to experimental use. All test compounds were further diluted in ethanol or aqueous buffer as needed. Venous blood was collected from healthy volunteers into vacutainer tubes containing sodium EDTA. Plasma was separated by centrifugation at 3000 g for 25 min at 4° C. and adjusted to a density of 1.020 g/mL with KBr. Triglyceride-rich lipoproteins (TGRL) and LDL fractions were then isolated bysequential centrifugation at 70,000 rpm at 4° C. in a Beckman LE-80 ultracentrifuge using a Beckman 50.4Ti rotor (Beckman Coulter, Inc., Fullerton, Calif.). The TGRL fraction (with a relative density of <1.020) was aspirated from the top of the centrifugate and discarded, leaving an LDL-enriched […] relative density of 1.020 to 1.063). […] The sdLDL subfraction was retained for additional experimentation. Plasma and lipoprotein fractions were maintained at 4° C. and protected from excessive exposure to light. […] Differences between groups were analyzed using the two-tailed, Student's t-test (for comparisons between only two groups) or ANOVA followed by Dunnett or Student-Newman-Keuls multiple comparisons post-hoc analysis (for comparisons between three or more groups).

Take `Cc1ccc(C)c(OCCCC(C)(C)C(=O)O)c1` [Gemfibrozil, gemfibrozil]: the “effect on unfractionated LDL oxidation” value in the data set on human LDL was “no significant effect on unfractionated LDL oxidation”. In addition, the “inhibition of glucose-induced sdLDL oxidation (in words)” value in data set [1] is recorded as “did not inhibit glucose-induced sdLDL oxidation”.
The like results for `O=C(O)c1cccnc1` [Niacin, nicotinic acid] were, in that order, “no significant effect on unfractionated LDL oxidation” and “did not inhibit glucose-induced sdLDL oxidation”.
In the case of `CC(C)c1c(C(=O)Nc2ccccc2)c(-c2ccccc2)c(-c2ccc(F)cc2)n1CC[C@@H](O)C[C@@H](O)CC(=O)O` [atorvastatin], the “effect on unfractionated LDL oxidation” value in the data set with human LDL is on record as “did not have any significant antioxidant activity”. For the same molecule, the “share of circulating HMG-CoA reductase inhibitory activity accounted for by active metabolites” value at HMG-CoA reductase is “approximately 70%”. The “inhibition of sdLDL oxidation (TBARS formation) vs vehicle” value with human sdLDL [2] came out at 0.1±7%.
Turning to `Cc1c(C)c2c(c(C)c1O)CC[C@@](C)(CCC[C@H](C)CCC[C@H](C)CCCC(C)C)O2` [vitamin E, α-tocopherol], the “effect on LOOH formation / lipid peroxidation” value in data set [3] is reported as “no significant effect on lipid peroxidation”. In addition, the “effect on unfractionated LDL oxidation” value in the data set on human LDL was “no significant effect on unfractionated LDL oxidation”. For the same molecule, in data set [1], the “increase of sdLDL oxidation as compared to glucose-treated controls” value came to 63% and the “inhibition of glucose-induced sdLDL oxidation (in words)” value is “failed to inhibit sdLDL oxidation”. Also, in the data set on unfractionated LDL, the “inhibition of LDL oxidation” value is recorded as “did not inhibit LDL oxidation at any concentration”. For the same molecule, in the data set on human sdLDL [4], the “inhibition of sdLDL oxidation” value is reported as “did not inhibit sdLDL oxidation except at the highest concentration”.
